Test results from article PMC5411961, “One amino acid makes a difference–Characterization of a new TPMT allele and the influence of SAM on TPMT stability” (Scientific Reports, 2017).

Target: T1, TPMTwt (Homo sapiens, UniProt P51580)
T1 construct: gene TPMT; recombinant, pET-28a, E. coli BL21(DE3) CodonPlus, His-tag cleaved off with thrombin, Ni-NTA and gel filtration
T1 sequence (P51580 1-245): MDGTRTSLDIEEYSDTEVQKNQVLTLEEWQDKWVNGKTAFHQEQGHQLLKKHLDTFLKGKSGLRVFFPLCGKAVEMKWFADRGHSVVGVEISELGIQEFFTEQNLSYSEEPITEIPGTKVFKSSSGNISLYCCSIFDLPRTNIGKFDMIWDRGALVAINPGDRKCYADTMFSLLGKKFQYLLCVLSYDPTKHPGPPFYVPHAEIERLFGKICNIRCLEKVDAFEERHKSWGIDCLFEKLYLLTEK
Experiment: isothermal titration calorimetry
Format: binding

Kd: 2.7 µM
Structure (SMILES): C[S+](CC[C@H](N)C(=O)O)C[C@H]1O[C@@H](n2cnc3c(N)ncnc32)[C@H](O)[C@@H]1O (stereo partly shown) [SAM]
